Here are results for 16 molecules from ChEMBL document CHEMBL5291721, “A preclinical secondary pharmacology resource illuminates target-adverse drug reaction associations of marketed drugs” (Nat Commun, 2023).

For experiment [1], the target named is T1, Glucocorticoid receptor (Homo sapiens, UniProt P04150).
T1 sequence (P04150 whole entry): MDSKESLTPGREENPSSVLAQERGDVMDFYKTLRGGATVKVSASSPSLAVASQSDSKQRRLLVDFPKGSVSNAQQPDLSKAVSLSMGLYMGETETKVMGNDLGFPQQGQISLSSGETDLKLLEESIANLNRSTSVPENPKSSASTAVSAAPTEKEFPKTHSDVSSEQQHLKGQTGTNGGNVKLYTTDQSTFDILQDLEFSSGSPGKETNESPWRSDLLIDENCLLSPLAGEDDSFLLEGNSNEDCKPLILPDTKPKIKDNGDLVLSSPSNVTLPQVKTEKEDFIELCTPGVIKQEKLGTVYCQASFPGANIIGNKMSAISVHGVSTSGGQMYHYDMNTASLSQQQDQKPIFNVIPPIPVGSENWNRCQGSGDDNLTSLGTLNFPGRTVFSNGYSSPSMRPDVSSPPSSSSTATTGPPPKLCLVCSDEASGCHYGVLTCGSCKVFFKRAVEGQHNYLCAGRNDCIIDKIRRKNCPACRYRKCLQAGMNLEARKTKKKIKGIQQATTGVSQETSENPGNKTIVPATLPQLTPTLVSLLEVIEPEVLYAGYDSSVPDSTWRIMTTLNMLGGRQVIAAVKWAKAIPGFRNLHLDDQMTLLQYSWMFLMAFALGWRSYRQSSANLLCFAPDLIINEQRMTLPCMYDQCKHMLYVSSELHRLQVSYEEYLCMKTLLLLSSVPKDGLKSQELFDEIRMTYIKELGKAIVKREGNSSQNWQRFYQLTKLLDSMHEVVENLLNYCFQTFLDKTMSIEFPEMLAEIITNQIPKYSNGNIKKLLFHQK
The experiment is classed as functional.

The target in a further experiment is T2, Estrogen receptor (Homo sapiens, UniProt P03372).
T2 sequence (P03372 whole entry): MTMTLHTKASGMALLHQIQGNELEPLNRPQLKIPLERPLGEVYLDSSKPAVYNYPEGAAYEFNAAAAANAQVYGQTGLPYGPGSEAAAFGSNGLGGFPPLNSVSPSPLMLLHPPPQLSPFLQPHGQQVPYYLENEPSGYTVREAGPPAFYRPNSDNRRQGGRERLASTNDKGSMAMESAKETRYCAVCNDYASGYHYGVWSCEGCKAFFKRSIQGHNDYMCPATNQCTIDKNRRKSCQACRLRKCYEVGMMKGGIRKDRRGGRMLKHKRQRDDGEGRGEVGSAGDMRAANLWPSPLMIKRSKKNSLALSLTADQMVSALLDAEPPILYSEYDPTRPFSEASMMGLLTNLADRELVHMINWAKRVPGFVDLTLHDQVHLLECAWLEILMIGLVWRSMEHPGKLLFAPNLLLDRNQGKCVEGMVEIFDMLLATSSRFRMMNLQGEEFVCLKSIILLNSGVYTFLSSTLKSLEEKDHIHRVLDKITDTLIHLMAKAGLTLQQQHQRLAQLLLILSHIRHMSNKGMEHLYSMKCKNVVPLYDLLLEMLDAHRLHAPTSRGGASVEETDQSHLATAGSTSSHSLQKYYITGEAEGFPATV
The experiment is classed as functional.

The target of experiment [2] is T1, Glucocorticoid receptor. Format: functional. The source holds these as a separate data set.
The target of experiment [3] is T3, Type-2 angiotensin II receptor (Homo sapiens, UniProt P50052).
T3 sequence (P50052 whole entry): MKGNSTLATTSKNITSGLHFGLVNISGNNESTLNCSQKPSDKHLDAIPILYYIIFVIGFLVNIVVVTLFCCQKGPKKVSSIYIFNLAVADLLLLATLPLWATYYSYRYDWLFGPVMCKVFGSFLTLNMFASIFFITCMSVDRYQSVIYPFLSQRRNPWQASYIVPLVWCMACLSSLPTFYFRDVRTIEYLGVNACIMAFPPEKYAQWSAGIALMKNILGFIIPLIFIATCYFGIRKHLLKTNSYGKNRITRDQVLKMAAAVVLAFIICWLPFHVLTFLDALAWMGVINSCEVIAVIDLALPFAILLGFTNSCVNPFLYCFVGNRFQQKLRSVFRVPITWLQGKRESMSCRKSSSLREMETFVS
The experiment is classed as functional.

Experiment [4] deals with Synaptic vesicular amine transporter (Rattus norvegicus, UniProt Q01827). Format: functional.
In experiment [5] the target is T4, Peroxisome proliferator-activated receptor alpha (Homo sapiens, UniProt Q07869).
T4 sequence (Q07869 whole entry): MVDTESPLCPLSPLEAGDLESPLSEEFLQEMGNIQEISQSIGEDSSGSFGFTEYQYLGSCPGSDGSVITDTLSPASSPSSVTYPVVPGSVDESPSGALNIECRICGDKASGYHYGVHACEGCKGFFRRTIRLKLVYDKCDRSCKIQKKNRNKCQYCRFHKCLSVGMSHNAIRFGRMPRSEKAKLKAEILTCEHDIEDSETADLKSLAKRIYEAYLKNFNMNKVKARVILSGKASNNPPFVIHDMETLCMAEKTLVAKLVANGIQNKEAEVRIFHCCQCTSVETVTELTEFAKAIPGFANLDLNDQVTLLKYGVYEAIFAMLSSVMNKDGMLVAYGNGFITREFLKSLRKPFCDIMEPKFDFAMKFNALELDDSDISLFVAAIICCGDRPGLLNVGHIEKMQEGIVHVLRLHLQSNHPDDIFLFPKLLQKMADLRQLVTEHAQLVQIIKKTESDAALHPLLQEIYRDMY
Format: functional.

The target of another experiment is Cannabinoid receptor 1 (Homo sapiens, UniProt P21554). The experiment is classed as functional.
Experiment [6] concerns the target 5-hydroxytryptamine receptor 5A (Homo sapiens, UniProt P47898).
For experiment [7], the target named is Rod cGMP-specific 3',5'-cyclic phosphodiesterase subunit alpha (Homo sapiens, UniProt P16499). The experiment is classed as functional.
Experiment [8] has as its target Voltage-dependent L-type calcium channel subunit alpha-1C (Homo sapiens, UniProt Q13936). Format: functional, cell-based.
Experiment [9] addresses Beta-1 adrenergic receptor (Homo sapiens, UniProt P08588). Format: functional, cell-based.
Further: assay procedure not described here.

Rod cGMP-specific 3',5'-cyclic phosphodiesterase subunit alpha, sequence (P16499 whole entry): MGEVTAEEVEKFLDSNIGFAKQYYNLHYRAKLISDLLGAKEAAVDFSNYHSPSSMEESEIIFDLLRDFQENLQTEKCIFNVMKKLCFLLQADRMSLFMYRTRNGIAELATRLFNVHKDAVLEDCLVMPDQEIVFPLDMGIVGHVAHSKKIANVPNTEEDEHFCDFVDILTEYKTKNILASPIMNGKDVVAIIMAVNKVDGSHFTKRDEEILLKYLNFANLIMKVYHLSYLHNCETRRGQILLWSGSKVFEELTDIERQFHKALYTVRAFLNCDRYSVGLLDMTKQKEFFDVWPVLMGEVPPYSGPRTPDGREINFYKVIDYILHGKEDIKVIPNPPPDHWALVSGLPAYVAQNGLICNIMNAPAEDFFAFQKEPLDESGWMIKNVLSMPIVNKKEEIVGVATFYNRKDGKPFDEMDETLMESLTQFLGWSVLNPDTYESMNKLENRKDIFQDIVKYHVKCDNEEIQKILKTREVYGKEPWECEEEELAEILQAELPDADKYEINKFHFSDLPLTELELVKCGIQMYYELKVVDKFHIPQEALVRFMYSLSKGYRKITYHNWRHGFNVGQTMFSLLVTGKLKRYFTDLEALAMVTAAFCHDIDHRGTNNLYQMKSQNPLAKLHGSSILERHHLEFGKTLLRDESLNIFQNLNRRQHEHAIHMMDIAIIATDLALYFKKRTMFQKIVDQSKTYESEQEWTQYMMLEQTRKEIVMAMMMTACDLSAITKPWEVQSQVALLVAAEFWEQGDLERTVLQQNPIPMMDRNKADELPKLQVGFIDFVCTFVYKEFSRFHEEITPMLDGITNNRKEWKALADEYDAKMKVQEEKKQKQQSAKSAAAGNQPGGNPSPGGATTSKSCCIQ
Beta-1 adrenergic receptor, sequence (P08588 whole entry): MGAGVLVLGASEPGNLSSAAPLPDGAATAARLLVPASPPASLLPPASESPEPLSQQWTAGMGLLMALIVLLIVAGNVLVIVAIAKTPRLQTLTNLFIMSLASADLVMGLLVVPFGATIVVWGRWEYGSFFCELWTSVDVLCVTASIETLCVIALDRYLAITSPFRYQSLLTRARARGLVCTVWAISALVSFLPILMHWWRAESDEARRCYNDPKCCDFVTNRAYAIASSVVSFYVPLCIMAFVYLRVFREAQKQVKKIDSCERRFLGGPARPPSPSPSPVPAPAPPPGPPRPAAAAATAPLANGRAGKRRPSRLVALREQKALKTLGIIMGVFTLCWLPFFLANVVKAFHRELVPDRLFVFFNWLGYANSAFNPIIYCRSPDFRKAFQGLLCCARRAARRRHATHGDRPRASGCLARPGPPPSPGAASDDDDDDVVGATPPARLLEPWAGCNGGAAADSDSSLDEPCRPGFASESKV
5-hydroxytryptamine receptor 5A, sequence (P47898 whole entry): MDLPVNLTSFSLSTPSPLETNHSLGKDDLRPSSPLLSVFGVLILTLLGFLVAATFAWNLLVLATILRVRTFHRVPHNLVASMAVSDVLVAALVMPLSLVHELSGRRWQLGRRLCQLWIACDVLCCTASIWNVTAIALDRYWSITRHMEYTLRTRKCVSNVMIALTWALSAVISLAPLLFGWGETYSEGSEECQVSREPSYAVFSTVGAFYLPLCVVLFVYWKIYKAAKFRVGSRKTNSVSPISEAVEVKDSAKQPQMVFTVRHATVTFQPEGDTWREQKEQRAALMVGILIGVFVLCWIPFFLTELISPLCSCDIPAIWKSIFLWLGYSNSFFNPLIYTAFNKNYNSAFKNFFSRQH
Cannabinoid receptor 1, sequence (P21554 whole entry): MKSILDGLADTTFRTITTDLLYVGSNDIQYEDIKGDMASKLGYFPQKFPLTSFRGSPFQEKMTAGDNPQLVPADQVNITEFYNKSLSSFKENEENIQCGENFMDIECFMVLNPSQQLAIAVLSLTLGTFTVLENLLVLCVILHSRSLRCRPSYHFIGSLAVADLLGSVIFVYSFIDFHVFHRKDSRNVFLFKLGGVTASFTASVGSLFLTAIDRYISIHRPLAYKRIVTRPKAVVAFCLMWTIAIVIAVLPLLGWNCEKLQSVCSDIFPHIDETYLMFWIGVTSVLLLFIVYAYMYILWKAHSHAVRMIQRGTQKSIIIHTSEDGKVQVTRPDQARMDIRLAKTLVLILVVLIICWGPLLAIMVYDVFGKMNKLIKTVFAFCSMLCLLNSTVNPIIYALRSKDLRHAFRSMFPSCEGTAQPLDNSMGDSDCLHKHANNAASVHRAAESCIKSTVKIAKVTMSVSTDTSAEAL
Synaptic vesicular amine transporter, sequence (Q01827 whole entry): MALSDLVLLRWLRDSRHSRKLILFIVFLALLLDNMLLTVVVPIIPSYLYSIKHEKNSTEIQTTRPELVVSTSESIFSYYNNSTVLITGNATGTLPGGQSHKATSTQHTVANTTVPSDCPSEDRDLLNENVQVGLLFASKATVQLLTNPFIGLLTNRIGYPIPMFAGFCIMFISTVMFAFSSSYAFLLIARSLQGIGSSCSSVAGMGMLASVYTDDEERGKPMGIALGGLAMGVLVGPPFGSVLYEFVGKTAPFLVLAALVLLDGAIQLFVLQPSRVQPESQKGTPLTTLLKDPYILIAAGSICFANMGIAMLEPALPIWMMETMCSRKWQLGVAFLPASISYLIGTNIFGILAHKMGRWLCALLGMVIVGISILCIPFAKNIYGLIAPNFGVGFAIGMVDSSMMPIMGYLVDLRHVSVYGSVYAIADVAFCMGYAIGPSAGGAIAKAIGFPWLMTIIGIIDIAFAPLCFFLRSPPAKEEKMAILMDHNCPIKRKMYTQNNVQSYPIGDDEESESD
Voltage-dependent L-type calcium channel subunit alpha-1C, sequence (Q13936 whole entry): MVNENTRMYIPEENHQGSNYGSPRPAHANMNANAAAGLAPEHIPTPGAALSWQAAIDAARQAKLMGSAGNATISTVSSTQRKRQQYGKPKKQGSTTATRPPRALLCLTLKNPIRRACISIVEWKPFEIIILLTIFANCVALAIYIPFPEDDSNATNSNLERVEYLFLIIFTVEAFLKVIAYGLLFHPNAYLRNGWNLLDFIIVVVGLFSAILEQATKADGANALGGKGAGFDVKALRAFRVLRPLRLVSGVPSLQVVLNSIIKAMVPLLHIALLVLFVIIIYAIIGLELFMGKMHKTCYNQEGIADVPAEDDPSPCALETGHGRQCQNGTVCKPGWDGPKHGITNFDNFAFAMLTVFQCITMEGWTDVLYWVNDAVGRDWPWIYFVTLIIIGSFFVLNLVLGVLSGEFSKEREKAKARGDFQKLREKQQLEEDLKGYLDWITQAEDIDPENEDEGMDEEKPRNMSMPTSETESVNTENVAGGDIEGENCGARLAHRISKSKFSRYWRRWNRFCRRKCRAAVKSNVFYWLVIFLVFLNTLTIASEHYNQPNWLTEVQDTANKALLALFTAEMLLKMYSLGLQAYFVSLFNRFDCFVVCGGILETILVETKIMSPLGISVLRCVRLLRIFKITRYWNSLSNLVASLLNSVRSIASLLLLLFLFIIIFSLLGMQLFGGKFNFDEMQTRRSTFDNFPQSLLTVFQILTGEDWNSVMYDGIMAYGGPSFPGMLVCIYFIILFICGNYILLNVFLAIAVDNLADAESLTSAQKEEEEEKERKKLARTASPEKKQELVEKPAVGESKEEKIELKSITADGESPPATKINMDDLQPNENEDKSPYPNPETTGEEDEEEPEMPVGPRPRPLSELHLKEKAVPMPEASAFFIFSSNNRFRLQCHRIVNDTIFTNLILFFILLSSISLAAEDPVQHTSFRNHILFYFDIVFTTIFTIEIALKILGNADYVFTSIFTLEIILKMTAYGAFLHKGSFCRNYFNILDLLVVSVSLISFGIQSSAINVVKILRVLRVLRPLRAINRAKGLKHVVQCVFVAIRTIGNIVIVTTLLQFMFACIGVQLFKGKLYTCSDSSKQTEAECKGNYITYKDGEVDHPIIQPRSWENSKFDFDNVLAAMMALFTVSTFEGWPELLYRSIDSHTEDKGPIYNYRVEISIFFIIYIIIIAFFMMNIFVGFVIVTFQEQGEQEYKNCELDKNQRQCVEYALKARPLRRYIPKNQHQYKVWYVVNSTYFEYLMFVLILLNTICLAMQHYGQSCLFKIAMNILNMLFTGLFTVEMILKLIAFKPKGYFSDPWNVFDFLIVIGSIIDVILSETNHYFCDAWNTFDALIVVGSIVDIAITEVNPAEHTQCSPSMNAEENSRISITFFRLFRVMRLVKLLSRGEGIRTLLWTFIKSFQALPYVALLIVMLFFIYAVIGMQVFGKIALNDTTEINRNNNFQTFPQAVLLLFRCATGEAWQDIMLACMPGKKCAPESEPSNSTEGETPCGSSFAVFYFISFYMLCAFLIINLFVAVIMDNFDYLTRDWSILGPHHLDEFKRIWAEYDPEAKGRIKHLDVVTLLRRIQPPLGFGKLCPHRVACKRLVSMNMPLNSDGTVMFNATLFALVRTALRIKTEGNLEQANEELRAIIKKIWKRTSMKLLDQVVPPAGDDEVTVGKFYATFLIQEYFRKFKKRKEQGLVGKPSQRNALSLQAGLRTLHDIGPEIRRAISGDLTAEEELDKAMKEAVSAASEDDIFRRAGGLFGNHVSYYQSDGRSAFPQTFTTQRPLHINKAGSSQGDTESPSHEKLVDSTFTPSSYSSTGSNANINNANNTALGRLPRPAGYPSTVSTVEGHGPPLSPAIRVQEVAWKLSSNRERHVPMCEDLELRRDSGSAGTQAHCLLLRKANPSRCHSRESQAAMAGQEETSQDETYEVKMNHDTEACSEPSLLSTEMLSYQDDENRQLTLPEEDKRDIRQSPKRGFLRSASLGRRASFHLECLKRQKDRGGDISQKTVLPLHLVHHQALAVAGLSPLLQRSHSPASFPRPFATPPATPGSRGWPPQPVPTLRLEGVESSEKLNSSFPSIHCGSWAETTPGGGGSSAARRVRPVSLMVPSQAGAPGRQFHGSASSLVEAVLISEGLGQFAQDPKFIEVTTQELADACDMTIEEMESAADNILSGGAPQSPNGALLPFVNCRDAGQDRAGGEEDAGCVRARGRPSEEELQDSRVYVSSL

Regarding `COc1ccc(-n2nc(C(N)=O)c3c2C(=O)N(c2ccc(N4CCCCC4=O)cc2)CC3)cc1` [APIXABAN], the AC50 at Glucocorticoid receptor [1], at Estrogen receptor and on Glucocorticoid receptor [2] was more than 30 µM in each case. For the molecule `CC(C)(C)NCC(O)COc1cccc2c1CC(O)C(O)C2` (stereo not drawn) [NADOLOL], the AC50 in [3] was more than 100 µM. For the molecule `CC(=O)N1CCN(c2ccc(OCC3COC(Cn4ccnc4)(c4ccc(Cl)cc4Cl)O3)cc2)CC1` (stereo not drawn) [KETOCONAZOLE], the AC50 in experiment [4] was 0.57 µM; in experiment [5], more than 30 µM; on Glucocorticoid receptor [1], more than 30 µM. `CC(NC(C)(C)C)C(=O)c1cccc(Cl)c1` (stereo not drawn) [BUPROPION]: the AC50 at Cannabinoid receptor 1 was more than 10 µM; in [6], more than 10 µM; in experiment [4], more than 30 µM.

`CN1C2CCCC1CC(NC(=O)c1nn(C)c3ccccc13)C2` (stereo not drawn) [GRANISETRON]: the AC50 (at Cannabinoid receptor 1; in experiment [6]; in experiment [7]) was more than 10 µM throughout. Take `CCCCCCCC(=O)CC[C@@H]1[C@@H](C/C=C\CCCC(=O)O)[C@@H](O)C[C@H]1O` [UNOPROSTONE]: in [8], the AC50 is more than 50 µM. Consider `CCN(CC)CC(=O)Nc1c(C)cccc1C` [LIDOCAINE], for which the AC50 in experiment [7] is more than 10 µM. For `O=C(O)c1ccc2nc(-c3cc(Cl)cc(Cl)c3)oc2c1`, the AC50 in experiment [8] is more than 30 µM. Regarding `CN1CCCN=C1/C=C/c1cccc(O)c1` [OXANTEL], in [9], the AC50 was more than 30 µM. On to `Cc1ccc(-c2ncc(Cl)cc2-c2ccc(S(C)(=O)=O)cc2)cn1` [ETORICOXIB], for which the concentration at half-maximal activity (AC50) (on Cannabinoid receptor 1; in experiment [6]; in [7]) was more than 10 µM throughout.

Molecule `COc1nc(C)nc(Cl)c1N=C1NCCN1` [MOXONIDINE] returned an AC50 in [9] of more than 30 µM. The molecule `COC(=O)c1ccc2c(c1)NC(=O)/C2=C(\Nc1ccc(N(C)C(=O)CN2CCN(C)CC2)cc1)c1ccccc1` [NINTEDANIB] came in with an AC50 on Estrogen receptor of more than 10 µM. Regarding `CCCCCCOC(=O)NC(=N)c1ccc(NCc2nc3cc(C(=O)N(CCC(=O)OCC)c4ccccn4)ccc3n2C)cc1` [DABIGATRAN ETEXILATE], the AC50 at Glucocorticoid receptor [1], on Estrogen receptor and at Glucocorticoid receptor [2] was more than 30 µM throughout. The molecule `Cc1ccc(S(=O)(=O)NC(=O)N[C@H]2[C@H]3CC[C@@](C)([C@H]2O)C3(C)C)cc1` [GLIBORNURIDE] returned a concentration at half-maximal activity (AC50) in [9] of more than 30 µM. The molecule `CC1Cc2ccccc2N1NC(=O)c1ccc(Cl)c(S(N)(=O)=O)c1` (stereo not drawn) [INDAPAMIDE] registered an AC50 in experiment [3] of more than 100 µM. In turn, `CC(=O)OCC(=O)[C@@]1(O)CC[C@H]2[C@@H]3CCC4=CC(=O)CC[C@]4(C)[C@@]3(F)[C@@H](O)C[C@@]21C` [FLUDROCORTISONE ACETATE] gave an AC50 in [9] of more than 30 µM.

What is called AC50 is the concentration giving half of the maximal activity seen.
